Holding throughout (type): in vivo
In experiment [1] the test system is leptin-resistant obese mice carrying the M390R mutation in the Bbs1 gene (Bbs1^M390R). Briefly: Body weight and food intake of leptin-resistant obese Bbs1 M390R mice (Experiment 2). The settings on record: mouse model for Bardet-Biedl syndrome with leptin resistance. The text has this:
Experiment 2: The purpose of the experiment is to study the effects of GLP-1 receptor agonists on • body weight and food intake of leptin-resistant obese mice carrying the M390R mutation in the Bbs1 gene (Bbs1^M390R) and on • body weight and food intake of lean wild type littermate controls, both groups fed ad libitum. In this particular experiment the GLP-1 receptor agonist used is acetyl-GLP-1(7-34)amide. The M390R mutation in the Bbs1 gene can also be found in human Bardet-Biedl syndrome.
Male 12-16 weeks old mice are housed in individual cages for 3-5 days to acclimate to single housing conditions before baseline body weight and 24-hour food intake is determined during 4 days. Then food intake and body weight is tested in response to treatment with acetyl-GLP-1(7-34)amide. […]
During the treatment period, mice continue to have free access to food. […] At the end of the 7-day treatment period, body composition is determined in live mice using nuclear magnetic resonance (NMR) tomography. Mice are then sacrificed and the weight of various organs and tissues including various fat depots, liver, kidneys, heart, lung and brain are measured. […]

Experiment [2] has as its system mice carrying the M390R mutation in the Bbs1 gene (Bbs1^M390R). Put plainly: Retinal degeneration (rod-cone dystrophy, retinal cell apoptosis) in Bbs1 M390R mice (Experiment 3). The following applies: the same mouse model for Bardet-Biedl syndrome. On the procedure:
Experiment 3: The purpose of the experiment is to study the effects of GLP-1 receptor agonists on • Development of rod-cone dystrophy in mice carrying the M390R mutation in the Bbs1 gene (Bbs1^M390R). In this particular experiment the GLP-1 receptor agonist used is acetyl-GLP-1(7-34)amide. The M390R mutation in the Bbs1 gene can also be found in human Bardet-Biedl syndrome.
Male Bbs1^M390R mice are used in the experiment. From postnatal day 6 to postnatal day 30 the experimental group is treated intraperitoneally with acetyl-GLP-1 (7-34)amide. Mice of the control group are treated during the same age period with vehicle.
Analysis of endpoints: comparison of control vs GLP-1 At the end of the treatment period, mice are investigated by use of electroretinography (ERG), optical coherence tomography (OCT) and histology.

The next experiment has as its system BBS12^-/- mice. Put plainly: Apoptosis of photoreceptors in BBS12 model: retinal explants and BBS12-/- mice (Experiments 1a, 1b). The following applies: another mouse model for Bardet-Biedl syndrome. As to the method:
Experiment 1a: Effects of GLP-1 in ex-vivo model (retinal explants): In BBS12-deprived retinal explants and the Bbs12^/ murine model, impaired intraciliary transport results in protein retention in the endoplasmic reticulum. The protein overload activates a pro-apoptotic unfolded protein response leading to a specific Caspase12-mediated apoptosis of the photo-receptors. BBS12-deprived retinal explants are incubated with Ac-GLP-1 (7-34)amide and Caspase12-mediated apoptosis of the photo-receptors is compared to the apoptosis rate of BBS12-deprived retinal explants, which have been treated with the vehicle only.
• 15-day-old mice are sacrificed by decapitation, and the eyes are removed • First, the sclera is carefully removed, leaving the retinal pigmented epithelium attached to the eye ball. • Incisions are made at the edge of the cornea to remove cornea, lens, and hyaloid body. • Retinas are transferred, with retinal pigmented epithelium side down, to a culture membrane • Retina explants are maintained at 37 °C in a humidified 5% CO2 atmosphere. • Specific gene silencing with lentiviruses that carry a shRNA sequence for Bbs12 is performed. • Drugs are added to the culture medium […]

Regarding `CC[C@H](C)[C@H](NC(=O)[C@H](Cc1ccccc1)NC(=O)[C@H](CCC(=O)O)NC(=O)[C@H](CCCCN)NC(=O)[C@H](C)NC(=O)[C@H](C)NC(=O)[C@H](CCC(N)=O)NC(=O)CNC(=O)[C@H](CCC(=O)O)NC(=O)[C@H](CC(C)C)NC(=O)[C@H](Cc1ccc(O)cc1)NC(=O)[C@H](CO)NC(=O)[C@H](CO)NC(=O)[C@@H](NC(=O)[C@H](CC(=O)O)NC(=O)[C@H](CO)NC(=O)[C@@H](NC(=O)[C@H](Cc1ccccc1)NC(=O)[C@@H](NC(=O)CNC(=O)[C@H](CCC(=O)O)NC(=O)[C@H](C)NC(=O)[C@H](Cc1c[nH]cn1)NC(C)=O)[C@@H](C)O)[C@@H](C)O)C(C)C)C(=O)N[C@@H](C)C(=O)N[C@@H](Cc1c[nH]c2ccccc12)C(=O)N[C@@H](CC(C)C)C(=O)N[C@H](C(=O)N[C@@H](CCCCN)C(N)=O)C(C)C` [Ac-GLP-1 (7-34)amide, N-acetyl-GLP-1(7-34)amide], in experiment [1], the food intake result is reported as “inhibit food intake” and the weight loss entry was “stimulate weight loss”. In experiment [2], the “apoptosis of retinal cells” value is given as “inhibits apoptosis of retinal cells”. Further, in the experiment with BBS12^-/- mice, the “apoptosis of retinal cells” value is on record as “inhibits apoptosis of retinal cells”.
